Data on one compound can be found in US20140221340A1 (KYOWA HAKKO KIRIN CO., LTD., priority 2011, published 2014).

In this experiment the target is T1, human CCR10 (Homo sapiens, UniProt P46092).
T1 construct: expressed in transfected cells; host or cells: KJMGER8 cell (cell line derived from Namalwa cell); expression induced with 10 nmol/L β-estradiol
T1 sequence (P46092 1-362): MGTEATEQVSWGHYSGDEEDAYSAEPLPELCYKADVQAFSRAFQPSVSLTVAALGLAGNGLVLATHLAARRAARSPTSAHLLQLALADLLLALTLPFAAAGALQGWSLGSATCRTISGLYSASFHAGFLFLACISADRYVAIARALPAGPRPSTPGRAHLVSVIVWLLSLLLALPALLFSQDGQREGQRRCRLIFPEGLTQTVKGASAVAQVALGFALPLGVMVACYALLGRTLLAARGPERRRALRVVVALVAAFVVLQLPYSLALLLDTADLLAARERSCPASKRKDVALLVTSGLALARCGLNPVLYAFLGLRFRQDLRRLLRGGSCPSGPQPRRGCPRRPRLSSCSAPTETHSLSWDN
Nature of the experiment: Calcium assay of human CCR10 (inhibition of CTACK-induced increase in intracellular calcium ion concentration in hCCR10G16 cells). The following applies: test compound 100 nmol/L; human recombinant CTACK; hCCR10G16 cells (KJMGER8/Namalwa-derived, Gα16 co-expressed); FLIPR or FDSS; read-out: Inhibitory rate (%) for an increase in calcium ion concentration. Format: cell-based. The procedure, abridged:
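KJMGER8-derived hCCR10G16 cells (human CCR10 plus Gα16, expression induced 24 h with 10 nmol/L β-estradiol) were dye-loaded and preincubated with compound for 30 min at 37 °C, then stimulated with CTACK (300 nmol/L stock). Calcium flux over ~5 min (max−min fluorescence) gave percent inhibition versus DMSO control.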
(Calcium flux is commonly read through the fluorescence of an indicator in the cells.)

Take `Cc1ccc(Cl)c(Nc2c(C(=O)N3CCC4(CC3)OCc3ccccc34)cnc3c(S(=O)(=O)NC(=O)NCC(F)(F)F)cnn23)c1` [a-82, 7-(2-Chloro-5-methylphenylamino)-6-[3H-spiro(isobenzofuran-1,4′-piperidine)-1′-carbonyl]-N-(2,2,2-trifluoroethylcarbamoyl)pyrazolo[1,5-a]pyrimidine-3-sulfonamide]: the inhibition at 0.1 µM is 75.3%.
